pIC50: −log10 of the molar value.
What was measured:
JIMT-1 cells = test: NSG-B2M mice implanted with JIMT-1 Her2+ breast cancer cells and human PBMC; assay type: in vivo
Protocol: The NSG-B2M mouse model is a severely immunocompromised animal, combining the lesions non-obese diabetic (NOD), severe combined immunodeficiency (SCID), IL-2 receptor γ null, and β2-microglobulin null. Human tumor cells readily engraft in this model and cells from the human immune system can also be engrafted in order to study various modes of cancer immunotherapy. Thus, one can model a human immune response to a human tumor in this system. Female NSG-B2M mice were injected in the mammary fat pad with 5×10^6 JIMT-1 cells (human breast carcinoma cell line) suspended in 0.1 mL of phosphate-buffered saline (PBS) with an equal volume of Matrigel®. Once tumors reached a volume of 100-200 mm^3, the mice were implanted with 1×10^7 human PBMC by subcutaneous injection into the right flank (pre-randomization). PBMC were obtained from two donors and distributed evenly between groups. When tumors reached an average tumor volume of 200-250 mm^3 (about 3 days post-PBMC injection) animals were matched by tumor volume into treatment and control groups, and dosing initiated. This first day of dosing was defined as Day 0. The mice were administered a daily oral dose of 10 mL/kg of 10% dimethyl sulfoxide (DMSO) in PBS as vehicle control or 10 mg/kg of GA2E dissolved in 10% DMSO in PBS as the treatment.
Tumor volume was measured twice weekly and on the day a study endpoint was reached. The mice were also weighed twice weekly and on the day a study endpoint was reached.
Study endpoint was defined as when the mean tumor volume of the control group (uncensored) reaches 1500 mm^3. If this occurs before Day 28, treatment groups and individual mice were permitted to be dosed and measured up to Day 28.

RARγ = target: T1, RARγ (Homo sapiens, UniProt P13631); test: RARγ transactivation assay (luciferase reporter); assay type: cell-based; conditions: at all tested concentrations (0.5 to 625 nM); receptor not given
T1 construct: expression plasmids encoding the full-length receptors RARα and RARγ; expressed in transfected cells
T1 sequence (P13631 1-454): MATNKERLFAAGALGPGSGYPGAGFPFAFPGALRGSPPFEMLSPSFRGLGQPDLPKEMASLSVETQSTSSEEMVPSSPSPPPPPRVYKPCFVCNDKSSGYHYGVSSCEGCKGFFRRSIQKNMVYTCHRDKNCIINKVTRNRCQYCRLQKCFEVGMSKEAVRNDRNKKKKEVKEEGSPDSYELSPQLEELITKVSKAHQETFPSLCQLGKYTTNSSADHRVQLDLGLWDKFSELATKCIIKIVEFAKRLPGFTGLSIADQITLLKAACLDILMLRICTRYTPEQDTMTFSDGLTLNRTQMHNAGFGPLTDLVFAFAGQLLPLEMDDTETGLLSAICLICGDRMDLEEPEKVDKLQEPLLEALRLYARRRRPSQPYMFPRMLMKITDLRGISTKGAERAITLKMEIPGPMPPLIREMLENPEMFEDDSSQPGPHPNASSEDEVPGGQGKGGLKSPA
Protocol: Transactivation assays were conducted to test the specificity of binding activity of GA1E and GA2E for RARα and RARγ. Retinoic acid receptor transactivation activity and binding efficiencies were determined essentially as described in U.S. Pat. Nos. 5,298,429 and 5,071,773, incorporated by reference herein for all they teach regarding transactivation assays. Transactivation assays employed expression plasmids encoding the full-length receptors RARα and RARγ. Reporter plasmids containing the herpes virus thymidine kinase promoter and the appropriate retinoic acid receptor response element (RAREs) were positioned upstream of an open coding region encoding firefly luciferase.
The ability of GA1E and GA2E to activate RARα and RARγ in a transactivation assay was tested over a concentration range of 0.5 to 625 nM (GA2E) or 0.05 to 3320 nM (GA1E). GA1E induced less than 10% transactivation for RARα across the whole concentration range, but over 50% transactivation for RARγ at concentrations ≥25 nM and over 70% at concentrations 125 nM (FIG. 3A). GA2E induced more than 85% transactivation at all tested concentrations and less than 10% transactivation of RARα at concentrations of ≤25 nM (FIG. 3B).

TIL in LLC tumors = test: Flow cytometry of LLC tumors, Day 13; assay type: in vivo, mouse
Text: The mice were sacrificed on Day 13 of the study and the tumors collected and analyzed by flow cytometry. Statistical analysis was by ordinary one-way ANOVA with Tukey's test for significance comparison between groups. Gates were set to identify single cells by forward light scatter, live cells as single cells based on side scatter and staining with the vital stain Fixable Viability Dye eFluor™ 780, white blood cells from live cells based on side scatter and staining with anti-CD45, lymphocytes from white blood cells based on side and forward light scatter, and total T lymphocytes (tot T) from lymphocytes based on side scatter and staining with anti-CD3. Total T lymphocytes were divided into CD4^+ (TH) and CD8^+ (TC) lymphocytes based on staining with and anti-CD4 and CD8 antibodies and subsets assessed (FIG. 20). The following observations were made on a per-mg of tumor tissue basis.

EMT6 cells [1] = test: EMT6 in vitro culture viability, Cell Titer Glo Assay; assay type: cell-based, mouse; conditions: 5 days
Protocol: EMT6 cells were cultured in vitro for 5 days the presence of a multiple concentrations of the RARγ agonists GA1E, GA2E, and GA3Ep and viability assessed by the Cell Titer Glo Assay® (Promega).

EMT6 cells [2] = test: EMT6 syngeneic mouse model of triple negative breast cancer (Example 3); assay type: in vivo; conditions: 21 daily oral doses 10 mg/kg; at the end of the study
Protocol: The RARγ agonists tazarotenic acid and GA2E were evaluated in the EMT6 syngeneic mouse model of breast cancer. 5×10^5 EMT6 cells were injected into the mammary fat pad of immunocompetent female Balb/c mice. When the tumors reached an average volume of 50-150 mm^3, mice were matched by tumor size into control or treatment groups (n=10-11).
The mice were treated with 21 daily oral doses 10 mg/kg of 1 mg/ml tazarotenic acid or GA2E, or vehicle control, starting on Day 0. Tumor volume was measured, and the mice weighed, on days 0, 1, 3, 6, 8, 10, 13, 15, 17, 20, and 21.

CC1(C)CCC(C)(C)c2cc(C(/C=C/c3ccc(C(=O)O)cc3F)=N/O)ccc21 [GA2E, 3-fluoro-4-((1E,3E)-3-(hydroxyimino)-3-(5,5,8,8-tetramethyl-5,6,7,8-tetrahydronaphthalen-2-yl)prop-1-en-1-yl)benzoic acid]
tumor volume after drug holiday started on Day 13 (JIMT-1 cells; 10 mg/kg daily oral until Day 12, then drug holiday): tumor shrinkage subsequent to Day 19 | tumor growth while the mice were receiving drug (JIMT-1 cells; 10 mg/kg daily oral, Day 0 to Day 12): No impact on tumor growth | weight loss (JIMT-1 cells; 10 mg/kg daily oral, by Day 12): > 10% | transactivation (RARγ): more than 85% | proportion of Treg cells as a percentage of total T cell (TIL in LLC tumors; P<0.001): significantly reduced | concentration of T helper cells (TIL in LLC tumors; per mg tumor, 10 and 25 mg/kg): did not change significantly | concentration of T regulatory cells (TIL in LLC tumors; per mg tumor, 10 and 25 mg/kg): did not change significantly | concentration of central memory CD8+ T cells (TIL in LLC tumors; per mg tumor, 10 and 25 mg/kg): did not change significantly | concentration of naïve CD8+ T cells (TIL in LLC tumors; per mg tumor, 10 and 25 mg/kg): did not change significantly | concentration of total CD4+ T cells (TIL in LLC tumors; per mg tumor, 10 and 25 mg/kg): did not change significantly | concentration of effector memory CD8+ T cells (TIL in LLC tumors; per mg tumor, P<0.01 for the 25 mg/kg dosage): increased | concentration of cytotoxic cells (CD8, intracellular IFN-γ) (TIL in LLC tumors; per mg tumor, P<0.05 for the 25 mg/kg dosage): increased | concentration of total CD8+ lymphocytes in tumor (TIL in LLC tumors; per mg tumor, vs controls, P<0.05 for the 25 mg/kg dosage): increased | effect on viability as concentrations exceeded 10 μM (EMT6 cells [1]): rapidly became toxic | effect on viability at concentrations below 1 μM (EMT6 cells [1]): no effect | pIC50 (EMT6 cells [1]; Mus musculus, 120 h): 4.72 | tumor growth inhibition (EMT6 cells [2]): 63%

Reference: US12115193B2, “Methods of using RARγ agonists for cancer treatment” (Io Therapeutics, Inc., priority 2021, dated 2024)
